Test results taken from ChEMBL document CHEMBL1142747, “Prostatic acid phosphatase in cloacal derivatives” (Bioorg Med Chem Lett, 2005).

Legend:
[1] = Half life of ECA-ATL in serum; type: ADME, cell-free; settings: human
[2] = Half life of ECA-ATL in buffer at pH 7.4; type: ADME

SMILES | half-life [1] [h] | half-life [2] [h]
C=C(CC)C(=O)c1ccc(OCC(=O)OCCOCCO)c(Cl)c1Cl | < 0.0333 | 110
C=C(CC)C(=O)c1ccc(OCC(=O)OCCOCCOCCOCCOCCOCCO)c(Cl)c1Cl | < 0.0333 | 120
C=C(CC)C(=O)c1ccc(OCC(=O)OCCOCCOCCOCCO)c(Cl)c1Cl | < 0.0333 | 130
C=C(CC)C(=O)c1ccc(OCC(=O)OC(CNC(C)C)COc2ccc(CC(N)=O)cc2)c(Cl)c1Cl (stereo not drawn) | 0.5 | 14
